# From US20090264415A2 (priority 2004, published 2009)
# Read-outs that look alike come from different tables or passages of the source.
# Legend:
# [1] = tested on: production of human TNF-α by PBMC in response to LPS; test: TNF-α assay (LPS-stimulated PBMC, sandwich ELISA); format: cell-based; details: LPS 1 μg/ml, 72 hours, read-out: TNF α
# Protocol: Peripheral blood mononuclear cells (herein referred as PBMC), in response to stimulation by lipopolysaccharide (hereinafter LPS), a gram-negative bacterial endotoxin, produce various […], in particular human TNF-α. Inhibition of the activation of PBMC can therefore be measured by the level of suppression of the production of TNF-α by PBMC in response to stimulation by LPS. Inhibition measurement was performed as follows: PBMC were isolated from heparinized peripheral blood by density gradient centrifugation over Lymphoprep (commercially available from Nycomed, Norway). LPS was then added to the PMBC suspension in complete medium (10^6 cells/ml) at a final concentration of 1 μg/ml. The pteridine derivative to be tested was added at different concentrations (0.1 μM, 1 μM and 10 μM) and the cells were incubated at 37° C. for 72 hours in 5% CO2. The supernatants were collected, then TNF-α concentrations were measured with respectively an anti-TNF-α antibody in a sandwich ELISA (Duo Set ELISA human TNFα, commercially available from R&D Systems, United Kingdom). The colorimetric reading of the ELISA was measured by a Multiskan RC plate reader (commercially available from ThermoLabsystems, Finland) at 450 nm (reference wavelength: 690 nm). Data analysis was performed with Ascent software 2.6. (also from ThermoLabsystems, Finland): a standard curve (recombinant human TNFα) was drawn and the amount (pg/ml) of each sample on the standard curve was determined. The % suppression of human TNFα production by the pyrido[3,2-d]pyrimidine derivatives of the invention was calculated using the formula: [formula]
# [2] = tested on: peripheral blood mononuclear cells (PBMC) stimulated with allogeneic PBMC or EBV-transformed human B cells (RPMI1788); test: Mixed lymphocyte reaction (MLR) assay; format: cell-based; details: 50% suppression of the MLR, [3H]-thymidine incorporation, read-out: MLR
# How it was run: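 Responder PBMC co-cultured in triplicate with 30 Gy-irradiated allogeneic PBMC or RPMI1788 B cells plus compound (DMSO stock 10 mM, diluted in medium). After 5 days at 37° C, 1 μCi [3H]-thymidine added for 16 h more; incorporated cpm counted and proliferation inhibition calculated.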
SMILES,"IC50 ([1]; Homo sapiens, PBMC) [nM]","IC50 ([2]; Homo sapiens, RPMI-1788) [nM]",IC50 [1] [nM],IC50 [2] [nM]
"CC(=O)N1CCN(c2nc(N)nc3ccc(-c4ccc5c(c4)OCCO5)nc23)CC1 [Example 199, 2-amino-4-[N-acetyl-piperazin-1-yl]-6-(1,4-benzodioxane)-pyrido[3,2-d]pyrimidine]",2900,4800,–,–
"Nc1nc(N2CCOCC2)c2nc(-c3ccccc3Br)ccc2n1 [Example 210, 2-amino-4-morpholino-6-(2-bromo-phenyl)-pyrido[3,2-d]pyrimidine]",7200,1800,–,–
"COc1cc(-c2ccc3nc(N)nc(N4CCN(C(=O)Nc5ccc(F)cc5)CC4)c3n2)ccc1OC(C)C [Example 103, 2-amino-4-[(N-4-fluoro-phenyl-carbamoyl)-piperazin-1-yl]-6-(4-isopropoxy-3-methoxy-phenyl)-pyrido[3,2-d]pyrimidine]",–,–,6400,70
"COc1ccc(-c2ccc3nc(N)nc(NCCCNC(=O)Nc4cccc(C)c4)c3n2)cc1OC [Example 262, 2-amino-4-[(3-methylphenylcarbamoyl)-3-aminopropane-amino-1-N-yl]-6-(3,4-dimethoxyphenyl)-pyrido[3,2-d]pyrimidine]",6900,500,–,–
"CC(=O)N1CCN(c2nc(N)nc3ccc(-c4ccc5c(c4)OCO5)nc23)CC1 [Example 190, 2-amino-4-[N-acetyl-piperazin-1-yl]-6-(3,4-methylenedioxyphenyl)-pyrido[3,2-d]pyrimidine]",4800,800,–,–
"COc1ccc(-c2ccc3nc(N)nc(SC)c3n2)cc1OC [Example 223, 2-amino-4-thiomethyl-6-(3,4-dimethoxyphenyl)-pyrido[3,2-d]pyrimidine]",–,–,800,900
"COc1cc(-c2ccc3nc(N)nc(N4CCN(C(=O)Nc5ccc(F)cc5)CC4)c3n2)ccc1O [Example 101, 2-amino-4-[(N-4-fluoro-phenyl-carbamoyl)-piperazin-1-yl]-6-(4-hydroxy-3-methoxy-phenyl)-pyrido[3,2-d]pyrimidine]",–,–,600,500
"Clc1ccc(-c2ccc3ncnc(N4CCOCC4)c3n2)cc1 [Example 124, 4-morpholino-6-(4-chlorophenyl)-pyrido[3,2-d]pyrimidine]",10000,7200,–,–
"Nc1nc(N2CCOCC2)c2nc(-c3cccnc3)ccc2n1 [Example 240, 2-amino-4-morpholino-6-(3-pyridinyl)-pyrido[3,2-d]pyrimidine]",700,1300,–,–
"COc1cc(-c2ccc3nc(N)nc(N4CCNCC4)c3n2)ccc1O [Example 100, 2-amino-4-(N-piperazin-1-yl)-6-(3-methoxy-4-hydroxyphenyl)-pyrido[3,2-d]pyrimidine]",–,–,2400,3300
COc1ccc(-c2ccc3nc(N)nc(N4CC[C@H](NC(=O)COc5ccc(Cl)cc5)C4)c3n2)cc1OC [Example 220],1800,4300,–,–
"COc1ccc(-c2ccc3nc(N)nc(N4CCCC(C(=O)NCC(C)C)C4)c3n2)cc1OC (stereo not drawn) [Example 268, 2-amino-4-[(3-carboxylic acid isobutylamide)-piperidin-1-yl]-6-(3,4-dimethoxyphenyl)-pyrido[3,2-d]pyrimidine]",700,500,–,–
Nc1nc(N2CCN(CC(=O)Nc3nccs3)CC2)c2nc(-c3ccc4c(c3)OCCO4)ccc2n1 [Example 201],3400,800,–,–
COc1ccc(-c2ccc3nc(N)nc(N4CC[C@@H](NC(=O)COc5ccc(Cl)cc5)C4)c3n2)cc1OC [Example 267],2500,700,–,–
"Nc1nc(N2CCOCC2)c2nc(-c3ccncc3)ccc2n1 [Example 234, 2-amino-4-morpholino-6-(4-pyridinyl)-pyrido[3,2-d]pyrimidine]",500,700,–,–
"COc1ccc(-c2ccc3nc(N)nc(NC4CCCN(C(=O)OC(C)(C)C)C4)c3n2)cc1OC (stereo not drawn) [Example 257, 2-amino-4-[(1-Boc-piperidin-3-yl)amino]-6-(3,4-dimethoxyphenyl)-pyrido[3,2-d]pyrimidine]",600,300,–,–
"Nc1nc(N2CCOCC2)c2nc(-c3ccc4c(c3)OCCO4)ccc2n1 [Example 165, 2-amino-4-(morpholino)-6-(1,4-benzodioxane-phenyl)pyrido[3,2-d]pyrimidine]",–,–,900,600

SMILES,"IC50 ([1]; Homo sapiens, PBMC) [nM]","IC50 ([2]; Homo sapiens, RPMI-1788) [nM]",IC50 [1] [nM],IC50 [2] [nM]
"Cc1csc(-c2ccc3nc(N)nc(N4CCOCC4)c3n2)c1 [Example 239, 2-amino-4-morpholino-6-(4-methyl-2-thienyl)-pyrido[3,2-d]pyrimidine]",4900,4600,–,–
COc1ccc(-c2ccc3nc(OC(C)CN4CCCC4)nc(N4CCN(C(=O)Nc5cccc(C)c5)CC4)c3n2)cc1OC (stereo not drawn) [Example 17],–,–,5200,2700
"COc1ccc(-c2ccc3ncnc(N4CCN(CCOc5ccccc5)CC4)c3n2)cc1OC [Example 5, 4-[(2-phenoxyethyl)-piperazin-1-yl]-6-(3,4-dimethoxyphenyl)-pyrido[3,2-d]pyrimidine]",–,–,650,100
"COc1ccc(-c2ccc3nc(N)nc(NC4CCN(C(=O)OC(C)(C)C)CC4)c3n2)cc1OC [Example 255, 2-amino-4-[(1-Boc-piperidin-4-yl)amino]-6-(3,4-dimethoxyphenyl)-pyrido[3,2-d]pyrimidine]",40,60,–,–
"Nc1nc(N2CCN(C(=O)COc3ccc(Cl)cc3)CC2)c2nc(-c3ccc4c(c3)OCO4)ccc2n1 [Example 193, 2-amino-4-[N-(4-chlorophenoxy-acetyl)-piperazin-1-yl]-6-(3,4-methylenedioxyphenyl)-pyrido[3,2-d]pyrimidine]",5800,40,–,–
"COc1ccc(-c2ccc3nc(N)nc(NCC(=O)N4CCN(Cc5ccccc5)CC4)c3n2)cc1OC [Example 271, 2-amino-4-[2-(4-benzylpiperazin-1-yl)-2-oxo-ethane-amino]-6-(3,4-dimethoxyphenyl)-pyrido[3,2-d]pyrimidine]",500,700,–,–
"COc1ccc(-c2ccc3nc(N)nc(N4CCN(C)CC4)c3n2)cc1OC [Example 31, 2-amino-4-(N-methyl-piperazino)-6-(3,4-dimethoxyphenyl)-pyrido[3,2-d]pyrimidine]",800,900,–,–
"COc1ccc(-c2ccc3ncnc(N4CCNCC4)c3n2)cc1OC [Example 107, 4-(N-piperazin-1-yl)-6-(3,4-dimethoxyphenyl)-pyrido[3,2-d]-pyrimidine]",–,–,2700,3800
"CCOc1ccc(-c2ccc3nc(N)nc(N4CCOCC4)c3n2)cc1F [Example 166, 2-amino-4-morpholino-6-(3-fluoro-4-ethoxy-phenyl)-pyrido[3,2-d]pyrimidine]",800,700,–,–
"COc1ccc(-c2ccc3nc(N)nc(NCCCNC(=O)COc4ccc(Cl)cc4)c3n2)cc1OC [Example 266, 2-amino-4-[3-N-(4-chlorophenoxy-acetyl)-3-amino-propane-amine-1-N-yl]-6-(3,4-dimethoxyphenyl)-pyrido[3,2-d]pyrimidine]",900,700,–,–
"COc1ccc(-c2ccc3nc(N)nc(NCCN4CCOCC4)c3n2)cc1OC [Example 33, 2-amino-4-[4-(2-aminoethyl)morpholino]-6-(3,4-dimethoxyphenyl)-pyrido[3,2-d]pyrimidine]",–,–,700,1900
"Nc1nc(N2CCOCC2)c2nc(-c3cccs3)ccc2n1 [Example 238, 2-amino-4-morpholino-6-(2-thienyl)-pyrido[3,2-d]pyrimidine]",2800,800,–,–
"Nc1nc(N2CCOCC2)c2nc(-c3ccc(Cl)s3)ccc2n1 [Example 241, 2-amino-4-morpholino-6-(5-chloro-2-thienyl)-pyrido[3,2-d]pyrimidine]",5400,2200,–,–
"COc1cc(-c2ccc3nc(N)nc(N4CCOCC4)c3n2)ccc1OC(C)C [Example 99, 2-amino-4-(N-morpholino)-6-(4-isopropoxy-3-methoxy-phenyl)-pyrido[3,2-d]pyrimidine]",–,–,1000,700
"COc1ccc(-c2ccc3nc(N)nc(N4CCOCC4)c3n2)cc1Cl [Example 164, 2-amino-4-(morpholino)-6-(3-chloro-4-methoxyphenyl)pyrido[3,2-d]pyrimidine]",1500,600,–,–
"Cc1cccc(NC(=O)N2CCN(c3nc(N)nc4ccc(-c5ccc6c(c5)OCO6)nc34)CC2)c1 [Example 196, 2-amino-4-[N-(3-methyl-phenyl-carbamoyl)-piperazin-1-yl]-6-(3,4-methylenedioxyphenyl)-pyrido[3,2-d]pyrimidine]",5300,30,–,–
